One block for each molecule: values may come before it.
How the values were obtained:
[1] = molecular target: T1, N-lysine methyltransferase SMYD2 (Homo sapiens, UniProt Q9NRG4); assay: Inhibition of SMYD2 (unknown origin) using 3H-SAM as substrate incubated for 1 hr by filter binding method
[2] = molecular target: T1, N-lysine methyltransferase SMYD2; assay: Inhibition of SMYD2 (unknown origin) assessed as residual activity at 10 uM using 3H-SAM as substrate incubated for 1 hr by filter binding method relative to control
MDA-MB-231 = assay: Antiproliferative activity against human MDA-MB-231 cells assessed as inhibition of cell growth incubated for 72 hrs by CellTiter-Glo luminescent cell viability assay; assay type: functional, cell-based; settings: MDA-MB-231, 72 h
Ca-Ski = assay: cells; assay type: functional, cell-based; settings: Homo sapiens, 72 h
Description: Antiproliferative activity against human Ca-Ski cells assessed as inhibition of cell growth incubated for 72 hrs by CellTiter-Glo luminescent cell viability assay

[3] = molecular target: Glycogen synthase kinase-3 beta (Homo sapiens, UniProt P49841); assay: Inhibition of GSK3beta (unknown origin)
Sequence of Glycogen synthase kinase-3 beta (P49841 whole entry): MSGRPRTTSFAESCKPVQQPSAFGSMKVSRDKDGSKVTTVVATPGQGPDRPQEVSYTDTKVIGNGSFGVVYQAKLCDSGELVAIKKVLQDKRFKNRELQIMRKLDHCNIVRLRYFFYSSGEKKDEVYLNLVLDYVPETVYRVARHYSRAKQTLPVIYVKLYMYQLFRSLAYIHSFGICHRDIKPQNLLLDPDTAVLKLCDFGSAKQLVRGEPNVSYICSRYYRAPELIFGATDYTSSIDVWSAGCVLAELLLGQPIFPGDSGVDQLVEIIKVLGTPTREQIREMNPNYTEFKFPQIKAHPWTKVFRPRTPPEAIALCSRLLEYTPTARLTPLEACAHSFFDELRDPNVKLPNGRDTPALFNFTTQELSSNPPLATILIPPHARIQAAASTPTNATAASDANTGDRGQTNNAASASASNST

[4] = Drug concentration in ICR mouse plasma at 40 mg/kg, ip administered as vehicle 2 as corn oil suspension measured upto 1440 mins by HPLC analysis; assay type: ADME, organism-based
MDA-MB-453 [5] = assay: Antitumor activity against human MDA-MB-453 cells xenografted in BALB/c nude mouse assessed as tumor growth inhibition rate at 40 mg/kg, ip measured after 15 days relative to control; assay type: functional; settings: MDA-MB-453, 360 h, time 15 day, read-out: TGI
MDA-MB-453 [6] = assay: Antitumor activity against human MDA-MB-453 cells xenografted in ip dosed BALB/c nude mouse assessed as reduction in tumor growth measured after 15 days; assay type: functional; settings: MDA-MB-453, 360 h, time 15 day
[7] = Drug metabolism in liver microsomes (unknown origin) assessed as M+18 metabolite formation by LC-MS/MS analysis; assay type: ADME, Microsome
MDA-MB-453 [8] = assay: Antitumor activity against human MDA-MB-453 cells xenografted in BALB/c nude mouse assessed as reduction in tumor volume at 40 mg/kg, ip measured on day 4 by caliper method (reference value: 145 +/- 11 mm3); assay type: functional; settings: time 4 day
MDA-MB-453 [9] = assay: cells; assay type: functional, cell-based; settings: Homo sapiens, MDA-MB-453, 72 h
Description: Antiproliferative activity against human MDA-MB-453 cells assessed as inhibition of cell growth incubated for 72 hrs by CellTiter-Glo luminescent cell viability assay

[10] = Cmax in ICR mouse at 40 mg/kg, ip administered as vehicle 1 as DMSO/Cremophor EL/ PEG400/ DDW formulation measured upto 1440 mins by LC-MS/MS analysis; assay type: ADME, organism-based; set-up: dose 40 mg/kg, time < 1440 min, route ip; settings: in vivo
MDA-MB-453 [11] = assay: Antitumor activity against human MDA-MB-453 cells xenografted in BALB/c nude mouse assessed as reduction in tumor weight at 40 mg/kg, ip measured after 15 days (reference value: 0.038 +/- 0.02 g); assay type: functional; settings: time 15 day
MDA-MB-453 [12] = assay: Antitumor activity against human MDA-MB-453 cells xenografted in BALB/c nude mouse assessed as reduction in tumor volume at 40 mg/kg, ip measured every 3 days for 8 days by caliper method (reference value: 152+/- 11 mm3); assay type: functional; settings: time 8 day
[13] = Metabolic stability in mouse liver microsomes assessed as parent compound remaining at 5 uM preincubated for 5 mins with NADPH followed by compound addition and measured after 15 mins by LC-MS/MS analysis; assay type: ADME, Microsome; settings: read-out: Stability
[14] = Cmax in ICR mouse at 40 mg/kg, ip administered as vehicle 2 as corn oil suspension measured upto 1440 mins by LC-MS/MS analysis; assay type: ADME, organism-based; set-up: time < 1440 min, dose 40 mg/kg, route ip; settings: in vivo
[15] = AUClast in ICR mouse at 40 mg/kg, ip administered as vehicle 1 as DMSO/Cremophor EL/ PEG400/ DDW formulation measured upto 1440 mins by LC-MS/MS analysis; assay type: ADME, organism-based; set-up: time < 1440 min, dose 40 mg/kg, route ip; settings: in vivo
[16] = Tmax in ICR mouse at 40 mg/kg, ip administered as vehicle 2 as corn oil suspension measured upto 1440 mins by LC-MS/MS analysis; assay type: ADME, organism-based; settings: in vivo
MDA-MB-453 [17] = assay: Antitumor activity against human MDA-MB-453 cells xenografted in BALB/c nude mouse assessed as reduction in tumor volume at 40 mg/kg, ip measured on day 1 by caliper method (reference value: 137 +/- 10 mm3); assay type: functional; settings: time 1 day
[18] = Drug metabolism in liver microsomes (unknown origin) assessed as M-115 metabolite formation by LC-MS/MS analysis; assay type: ADME, Microsome
[19] = AUClast in ICR mouse at 40 mg/kg, ip administered as vehicle 2 as corn oil suspension measured upto 1440 mins by LC-MS/MS analysis; assay type: ADME, organism-based; set-up: dose 40 mg/kg, time < 1440 min, route ip; settings: in vivo
HEK293 = assay: Induction of apoptosis in HEK293 cells assessed as increase in cleaved PARP level incubated for 24 hrs by immunoblot analysis; assay type: toxicity, cell-based; settings: human, hek293, 24 h, DDE = dose-dependent effect, dose 0.0195-10 µM
[20] = AUCinfinity in ICR mouse at 40 mg/kg, ip administered as vehicle 1 as DMSO/Cremophor EL/ PEG400/ DDW formulation measured upto 1440 mins by LC-MS/MS analysis; assay type: ADME, organism-based; set-up: dose 40 mg/kg, time < 1440 min, route ip; settings: in vivo
[21] = Drug uptake in ICR mouse plasma assessed as time required to reach higher drug level at 40 mg/kg, ip administered as vehicle 1 as DMSO/Cremophor EL/ PEG400/ DDW formulation measured upto 1440 mins by HPLC analysis; assay type: ADME, organism-based
[22] = Drug metabolism in liver microsomes (unknown origin) assessed as M-254 metabolite formation by LC-MS/MS analysis; assay type: ADME, Microsome
[23] = Terminal half life in ICR mouse at 40 mg/kg, ip administered as vehicle 2 as corn oil suspension measured upto 1440 mins by LC-MS/MS analysis; assay type: ADME, organism-based; settings: in vivo, read-out: beta t1/2
MDA-MB-453 [24] = assay: Antitumor activity against human MDA-MB-453 cells xenografted in BALB/c nude mouse assessed as reduction in tumor volume at 40 mg/kg, ip measured every 3 days for 15 days by caliper method (reference value: 177 +/- 19 mm3); assay type: functional; settings: time 15 day
MDA-MB-453 [25] = assay: Antitumor activity against human MDA-MB-453 cells xenografted in BALB/c nude mouse assessed as reduction in tumor volume at 40 mg/kg, ip measured every 3 days for 11 days by caliper method (reference value: 168 +/- 16 mm3); assay type: functional; settings: time 11 day
[26] = AUCinfinity in ICR mouse at 40 mg/kg, ip administered as vehicle 2 as corn oil suspension measured upto 1440 mins by LC-MS/MS analysis; assay type: ADME, organism-based; set-up: time < 1440 min, dose 40 mg/kg, route ip; settings: in vivo
[27] = Drug metabolism in liver microsomes (unknown origin) assessed as M-78 metabolite formation by LC-MS/MS analysis; assay type: ADME, Microsome
[28] = Drug metabolism in liver microsomes (unknown origin) assessed as M-56 metabolite formation by LC-MS/MS analysis; assay type: ADME, Microsome
[29] = Terminal half life in ICR mouse at 40 mg/kg, ip administered as vehicle 1 as DMSO/Cremophor EL/ PEG400/ DDW formulation measured upto 1440 mins by LC-MS/MS analysis; assay type: ADME, organism-based; settings: in vivo, read-out: beta t1/2
[30] = Tmax in ICR mouse at 40 mg/kg, ip administered as vehicle 1 as DMSO/Cremophor EL/ PEG400/ DDW formulation measured upto 1440 mins by LC-MS/MS analysis; assay type: ADME, organism-based; settings: in vivo
[31] = Toxicity in […] xenografted with human MDA-MB-453 cells assessed as body weight loss at 40 mg/kg, ip administered as DMSO/Cremophor EL/ PEG400/ DDW formulation and measured after 4 days; assay type: organism-based; settings: in vivo, 96 h, time 4 day

T1 sequence (Q9NRG4 whole entry): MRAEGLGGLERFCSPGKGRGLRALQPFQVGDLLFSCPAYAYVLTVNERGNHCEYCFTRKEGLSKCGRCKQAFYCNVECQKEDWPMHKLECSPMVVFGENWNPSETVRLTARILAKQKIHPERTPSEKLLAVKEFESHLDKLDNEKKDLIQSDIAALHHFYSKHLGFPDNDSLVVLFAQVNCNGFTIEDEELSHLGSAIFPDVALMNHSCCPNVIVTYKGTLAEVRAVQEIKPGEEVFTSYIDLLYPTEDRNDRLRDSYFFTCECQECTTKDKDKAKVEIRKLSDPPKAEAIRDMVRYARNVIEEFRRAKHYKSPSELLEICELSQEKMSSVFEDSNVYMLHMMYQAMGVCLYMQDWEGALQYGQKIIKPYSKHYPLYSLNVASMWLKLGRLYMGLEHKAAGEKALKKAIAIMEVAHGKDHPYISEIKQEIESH

IC50 [1]: > 20 µM | Activity [2]: 44.6%
Structure (SMILES): CN1C(=O)C(CCNc2ccc(C(=O)c3ccccc3)cc2)COC12C=CC(=O)C=C2 (stereo not drawn)

IC50 [1]: > 20 µM | Activity [2]: 50.4%
Structure (SMILES): CC(C)N1C(=O)C(Cc2ccccc2CS(=O)(=O)c2ccccc2)COC12C=CC(=O)C=C2 (stereo not drawn)

IC50 [1]: 18.5 µM | IC50 (MDA-MB-231): 1.64 µM | IC50 (Ca-Ski): 0.879 µM
Structure (SMILES): O=C1C=CC2(C=C1)OCC(Cc1cc(C(F)(F)F)cc(C(F)(F)F)c1)C(=O)N2c1ccccc1 (stereo not drawn)

IC50 [1]: > 30 µM
Structure (SMILES): CN1C(=O)C(CCO)COC12C=CC(=O)C=C2 (stereo not drawn)

IC50 [1]: > 20 µM | Activity [2]: 42.5%
Structure (SMILES): CC(C)N1C(=O)C(Cc2cccc(Br)c2)COC12C=CC(=O)C=C2 (stereo not drawn)

IC50 [1]: 0.003 µM
Structure (SMILES): O=C1COc2c([C@@H](O)CNCCN(C(=O)CCNCCc3ccc(Cl)c(Cl)c3)C3CCCCC3)ccc(O)c2N1

IC50 [1]: > 20 µM | Activity [2]: 45.1%
Structure (SMILES): CN1C(=O)C(CCNc2ccccc2)COC12C=CC(=O)C=C2 (stereo not drawn)

IC50 [1]: > 20 µM | Activity [2]: 27.8%
Structure (SMILES): CC(C)N1C(=O)C(Cc2cc(C(F)(F)F)ccc2Cl)COC12C=CC(=O)C=C2 (stereo not drawn)

IC50 [1]: 7.52 µM | Activity [2]: 53.5%
Structure (SMILES): CN1C(=O)C(CCNc2cc(F)cc(C(F)(F)F)c2)COC12C=CC(=O)C=C2 (stereo not drawn)

IC50 [1]: > 20 µM | Activity [2]: 47.2%
Structure (SMILES): CC(C)N1C(=O)C(Cc2c(F)cccc2C(F)(F)F)COC12C=CC(=O)C=C2 (stereo not drawn)

IC50 [1]: 3.06 µM | IC50 [3]: 1.53 µM
Structure (SMILES): O=C1C=CC2(C=C1)OCC(Cc1cn(-c3cccc(Cc4ccccc4)c3)nn1)C(=O)N2c1ccccc1 (stereo not drawn)

IC50 [1]: > 20 µM | Activity [2]: 41.4%
Structure (SMILES): CC(C)N1C(=O)C(Cc2ccc(Cl)cc2)COC12C=CC(=O)C=C2 (stereo not drawn)

IC50 [1]: > 20 µM | Activity [2]: 74.2%
Structure (SMILES): CN1C(=O)C(CCNc2cccnc2)COC12C=CC(=O)C=C2 (stereo not drawn)

IC50 [1]: 6.2 µM | Activity [2]: 13.6%
Structure (SMILES): CN1C(=O)C(CCNc2cccc(Cc3ccccc3)c2)COC12C=CC(=O)C=C2 (stereo not drawn)

concentration at 24 h [4]: 279 ng/mL | Drug metabolism [7]: Metabolite_Detected | IC50 (MDA-MB-453 [9]): 0.0119 µM | IC50 [1]: 0.679 µM | Cmax [10]: 1400 ng/mL | remaining at 0.25 h, 5 µM [13]: 1.22% | Cmax [14]: 301 ng/mL | AUC(0-t) at 24 h [15]: 5810 ng·h/mL | Tmax [16]: 1.17 h | Drug metabolism [18]: Metabolite_Detected | AUC(0-t) at 24 h [19]: 1560 ng·h/mL | AUC(0-inf) [20]: 6050 ng·h/mL | Tmax [21]: 8 h | IC50 (MDA-MB-231): 0.0854 µM | IC50 (Ca-Ski): 0.18 µM | Drug metabolism [22]: Metabolite_Detected | half-life [23]: 15.9 h | AUC(0-inf) [26]: 3130 ng·h/mL | Drug metabolism [27]: Metabolite_Detected | Drug metabolism [28]: Metabolite_Detected | half-life [29]: 4.83 h | Tmax [30]: 0.25 h
Structure (SMILES): CN1C(=O)C(CCO[Si](c2ccccc2)(c2ccccc2)C(C)(C)C)COC12C=CC(=O)C=C2 (stereo not drawn)
inhibition in vivo at 40 mg/kg (MDA-MB-453 [5]): 77.7% | ED50 (MDA-MB-453 [6]): < 40 mg/kg | Activity (MDA-MB-453 [8]): 126 mm3 | Activity (MDA-MB-453 [11]): 0.009 g | Activity (MDA-MB-453 [12]): 105 mm3 | Activity (MDA-MB-453 [17]): 136 mm3 | Activity (HEK293): Dde | Activity (MDA-MB-453 [24]): 67 mm3 | Activity (MDA-MB-453 [25]): 87 mm3 | Activity [31]: Toxic

IC50 [1]: > 20 µM | Activity [2]: 36%
Structure (SMILES): CC(C)N1C(=O)C(Cc2ccc(F)cc2)COC12C=CC(=O)C=C2 (stereo not drawn)

IC50 [1]: > 20 µM | Activity [2]: 96.5%
Structure (SMILES): CC1COC2(C=CC(=O)C=C2)N(C(C)C)C1=O (stereo not drawn)

IC50 [1]: 2.39 µM | IC50 (MDA-MB-231): 1.03 µM | IC50 (Ca-Ski): 0.733 µM | Activity [2]: 6.72%
Structure (SMILES): CC(C)N1C(=O)C(Cc2cc(C(F)(F)F)cc(C(F)(F)F)c2)COC12C=CC(=O)C=C2 (stereo not drawn)
Activity (HEK293): Dde

Source: ChEMBL document CHEMBL5143511, “Positioning of an unprecedented 1,5-oxaza spiroquinone scaffold into SMYD2 inhibitors in epigenetic space” (Eur J Med Chem, 2022)
